These results are taken from patent publication US20240239806A1, “COMPOUNDS, COMPOSITIONS AND METHODS OF TREATING DISORDERS” (Chengdu Anticancer Bioscience, Ltd., priority 2021, published 2024).

In this assay the test system is RPEMYC^H2B-GFP cells. The assay is described as follows: Phenotypic screening assay (mitotic arrest, polyploidy). It counts as cell-based. To be noted: 1 nM to 30 μM. The procedure, abridged:
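RPE cells expressing MYC and H2B-EGFP treated with compound at 1 nM–30 μM; mitotic index scored at 24 h and polyploidy (DNA content) at 48 h by automated imaging, with reads at 24, 48 or 72 h. Hits show transient mitotic arrest followed by polyploid accumulation.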

The mark [1] stands for this setting: read-out: Min. Effective conc. for Polyploidy (≥5%).

Where two headings read alike, the source gives them in different places.

As for `COc1cc(Oc2ccnc3cc(OC)c(C(N)=O)cc23)cc(-n2nc(C)cc2C)c1` [Compound 86, 4-(3-(3,5-dimethyl-1H-pyrazol-1-yl)-5-methoxyphenoxy)-7-methoxyquinoline-6-carboxamide], the minimal effective concentration under setting [1] lay within 1 to 10 µM and the minimal effective concentration (read-out: Mitotic Arrest (≥5%)) lay in the range of 1 to 10 µM.

For the compound `COc1cc(Oc2ccnc3cc(OC)c(C(N)=O)cc23)cc(-c2nnc(C)o2)c1` [Compound 87, 7-methoxy-4-(3-methoxy-5-(5-methyl-1,3,4-oxadiazol-2-yl)phenoxy)quinoline-6-carboxamide], the minimal effective concentration is, setting by setting: under setting [1], 0.001 to 1 µM; (read-out: Mitotic Arrest (≥5%)) 0.001 to 1 µM.

On to `COc1cc(Oc2ccnc3cc(OC)c(Br)cc23)cc(-n2cccn2)c1` [Compound 88, 6-bromo-7-methoxy-4-(3-methoxy-5-(1H-pyrazol-1-yl)phenoxy)quinoline], for which the minimal effective concentration fell in the range of 0.001 to 1 µM under setting [1] and 0.001 to 1 µM (read-out: Mitotic Arrest (≥5%)).

As to `COc1cc(OC)cc(Oc2ccnc3cc(OC)c(Br)cc23)c1` [Compound 89, 6-bromo-4-(3,5-dimethoxyphenoxy)-7-methoxyquinone], the minimal effective concentration by setting is: under setting [1], 0.001 to 1 µM; (read-out: Mitotic Arrest (≥5%)) 0.001 to 1 µM.

On to `CNC(=O)c1cc(OC)cc(Oc2ccnc3cc(OC)c(Br)cc23)c1` [Compound 90, 3-((6-bromo-7-methoxyquinolin-4-yl)oxy)-5-methoxy-N-methylbenzamide], for which the minimal effective concentration by setting is: under setting [1], 1 to 10 µM; (read-out: Mitotic Arrest (≥5%)) 1 to 10 µM.

On to `COc1cc(N)cc(Oc2ccnc3ccc(Br)cc23)c1` [Compound 91, 3-((6-bromoquinolin-4-yl)oxy)-5-methoxyaniline], for which the minimal effective concentration reads like this: under setting [1], 0.001 to 1 µM; (read-out: Mitotic Arrest (≥5%)) 0.001 to 1 µM.

For the compound `COc1cc(Oc2ccnc3ccc(Br)cc23)cc(OC2CCOC2)c1` (centres unmarked) [Compound 92, 6-bromo-4-(3-methoxy-5-((tetrahydrofuran-3-yl)oxy)phenoxy)quinoline], the minimal effective concentration under setting [1] lay in the range of 0.001 to 1 µM and the minimal effective concentration (read-out: Mitotic Arrest (≥5%)) fell in the range of 0.001 to 1 µM.

`COc1cc(Oc2ccnc3ccc(Br)cc23)cc([N+](=O)[O-])c1` [Compound 93, 4-(3-methoxy-5-nitrophenoxy)-6-bromoquinone]: the minimal effective concentration lay within 0.001 to 1 µM under setting [1] and 0.001 to 1 µM (read-out: Mitotic Arrest (≥5%)).

As to `COc1cc(Oc2cc(C)nc3ccccc23)cc(-n2cccn2)c1` [Compound 96, 4-(3-methoxy-5-(1H-pyrazol-1-yl)phenoxy)-2-methylquinoline], the minimal effective concentration by setting is: under setting [1], 0.001 to 1 µM; (read-out: Mitotic Arrest (≥5%)) 0.001 to 1 µM.

Turning to `COc1cc(Oc2cc(Cl)nc3ccc(Br)cc23)cc([N+](=O)[O-])c1` [Compound 97, 4-(3-methoxy-5-nitrophenoxy)-6-bromo-2-chloroquinoline], the minimal effective concentration by setting is: under setting [1], above 30 µM; (read-out: Mitotic Arrest (≥5%)) above 30 µM.

In the case of `[2H]c1cc(Oc2cc(OC)cc([N+](=O)[O-])c2)c2cc(Br)ccc2n1` [Compound 98], the minimal effective concentration is, setting by setting: under setting [1], 1 to 10 µM; (read-out: Mitotic Arrest (≥5%)) 1 to 10 µM.

`COC(=O)c1cc(OC)cc(Oc2ncnc3cc(OC)c(OC)cc23)c1` [Example 24, methyl 3-((6,7-dimethoxyquinazolin-4-yl)oxy)-5-methoxybenzoate]: the “Along with Cell Death” value is “C (a value greater than 10.0 μM and less than or equal to 30.0 μM)”; the “Min. Effective conc. for Polyploidy (≥5%)” value is “C (a value greater than 10.0 μM and less than or equal to 30.0 μM)”; the “Mitotic Arrest (≥5%)” value was “C (a value greater than 10.0 μM and less than or equal to 30.0 μM)”; the “Proliferative arrest (>50%)” value was “C (a value greater than 10.0 μM and less than or equal to 30.0 μM)”.
